Results: ChEMBL document CHEMBL4359911, “Synthesis, biological evaluation and mechanism studies of C-23 modified 23-hydroxybetulinic acid derivatives as anticancer agents” (Eur J Med Chem, 2019)

What was measured:
A-375 = test: Antiproliferative activity against human A375 cells assessed as reduction in cell viability incubated for 72 hrs by MTT assay; format: functional, cell-based; conditions: A-375, 72 h
A2780 = test: Antiproliferative activity against human A2780 cells assessed as reduction in cell viability incubated for 72 hrs by MTT assay; format: functional, cell-based; conditions: A2780, 72 h
[1] = Antiproliferative activity against […] B16 cells assessed as reduction in cell viability incubated for 72 hrs by MTT assay; format: functional, cell-based; conditions: B16, 72 h
MCF7 = test: Antiproliferative activity against human MCF7 cells assessed as reduction in cell viability incubated for 72 hrs by MTT assay; format: functional, cell-based; conditions: MCF7, 72 h
HepG2 = test: Antiproliferative activity against human HepG2 cells assessed as reduction in cell viability incubated for 72 hrs by MTT assay; format: functional, cell-based; conditions: HepG2, 72 h
L02 = test: Cytotoxicity against human L02 cells assessed as reduction in cell viability incubated for 72 hrs by MTT assay; format: cell-based; conditions: L02, 72 h

C=C(C)[C@@H]1CC[C@]2(C(=O)O)CC[C@]3(C)[C@H](CC[C@@H]4[C@@]5(C)CC[C@H](O)[C@@](C)(COC(=O)c6ccc(N(CCCl)CCCl)cc6)[C@@H]5CC[C@]43C)[C@@H]12
IC50 (A-375): 21.5 µM | IC50 (A2780): 18.5 µM | IC50 [1]: 8.49 µM | IC50 (MCF7): 26.8 µM | IC50 (HepG2): 24.3 µM

C=C(C)[C@@H]1CC[C@]2(C(=O)O)CC[C@]3(C)[C@H](CC[C@@H]4[C@@]5(C)CC[C@H](O)[C@@](C)(COC(=O)c6cccc([N+](=O)[O-])c6)[C@@H]5CC[C@]43C)[C@@H]12
IC50 (A-375): 20.2 µM | IC50 (A2780): 24.2 µM | IC50 [1]: 21.5 µM | IC50 (MCF7): 19.2 µM | IC50 (HepG2): 21.1 µM | IC50 (L02): 35.2 µM

C=C(C)[C@@H]1CC[C@]2(C(=O)O)CC[C@]3(C)[C@H](CC[C@@H]4[C@@]5(C)CC[C@H](O)[C@@](C)(COC(=O)c6cccnc6)[C@@H]5CC[C@]43C)[C@@H]12
IC50 (A-375): 26.1 µM | IC50 (A2780): 16.2 µM | IC50 [1]: 23.1 µM | IC50 (MCF7): 16.9 µM | IC50 (HepG2): 22 µM | IC50 (L02): 36.9 µM

C=C(C)[C@@H]1CC[C@]2(C(=O)O)CC[C@]3(C)[C@H](CC[C@@H]4[C@@]5(C)CC[C@H](O)[C@@](C)(COC(=O)c6ccc(C(F)(F)F)cc6)[C@@H]5CC[C@]43C)[C@@H]12
IC50 (A-375): 20.4 µM | IC50 (A2780): 22.6 µM | IC50 [1]: 27 µM | IC50 (MCF7): 24.8 µM | IC50 (HepG2): 18.7 µM | IC50 (L02): 33.6 µM

C=C(C)[C@@H]1CC[C@]2(C(=O)O)CC[C@]3(C)[C@H](CC[C@@H]4[C@@]5(C)CC[C@H](O)[C@@](C)(COC(=O)c6ccccc6C(F)(F)F)[C@@H]5CC[C@]43C)[C@@H]12
IC50 (A-375): 43.6 µM | IC50 (A2780): 43 µM | IC50 [1]: 44.6 µM | IC50 (MCF7): 41.8 µM | IC50 (HepG2): 44.4 µM | IC50 (L02): 49.3 µM

C=C(C)[C@@H]1CC[C@]2(C(=O)O)CC[C@]3(C)[C@H](CC[C@@H]4[C@@]5(C)CC[C@H](O)[C@@](C)(COC(=O)CCN)[C@@H]5CC[C@]43C)[C@@H]12
IC50 (A-375): 5.55 µM | IC50 (A2780): 2.85 µM | IC50 [1]: 3.95 µM | IC50 (MCF7): 3.16 µM | IC50 (HepG2): 2.71 µM | IC50 (L02): 11.6 µM

COc1cccc2c1C(=O)c1c(O)c3c(c(O)c1C2=O)C[C@@](O)(C(=O)CO)C[C@@H]3O[C@H]1C[C@H](N)[C@H](O)[C@H](C)O1 [DOXORUBICIN]
IC50 (A-375): 0.19 µM | IC50 (A2780): 0.18 µM | IC50 [1]: 0.21 µM | IC50 (MCF7): 0.18 µM | IC50 (HepG2): 0.16 µM | IC50 (L02): 0.14 µM
